The values below come from ChEMBL document CHEMBL1909046, “DrugMatrix in vitro pharmacology data”.

For the first assay, the target named is Matrix metalloproteinase-9 (Homo sapiens, UniProt P14780). The assay can be described thus: biochemical. It counts as cell-based.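 Also: inhibition of isolated MMP-9 enzyme activity toward a synthetic peptide substrate, from the DrugMatrix protease screening panel; in other assays of this panel Not Active means under 50% inhibition at 10 µM.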
Chain of Matrix metalloproteinase-9 (P14780 whole entry): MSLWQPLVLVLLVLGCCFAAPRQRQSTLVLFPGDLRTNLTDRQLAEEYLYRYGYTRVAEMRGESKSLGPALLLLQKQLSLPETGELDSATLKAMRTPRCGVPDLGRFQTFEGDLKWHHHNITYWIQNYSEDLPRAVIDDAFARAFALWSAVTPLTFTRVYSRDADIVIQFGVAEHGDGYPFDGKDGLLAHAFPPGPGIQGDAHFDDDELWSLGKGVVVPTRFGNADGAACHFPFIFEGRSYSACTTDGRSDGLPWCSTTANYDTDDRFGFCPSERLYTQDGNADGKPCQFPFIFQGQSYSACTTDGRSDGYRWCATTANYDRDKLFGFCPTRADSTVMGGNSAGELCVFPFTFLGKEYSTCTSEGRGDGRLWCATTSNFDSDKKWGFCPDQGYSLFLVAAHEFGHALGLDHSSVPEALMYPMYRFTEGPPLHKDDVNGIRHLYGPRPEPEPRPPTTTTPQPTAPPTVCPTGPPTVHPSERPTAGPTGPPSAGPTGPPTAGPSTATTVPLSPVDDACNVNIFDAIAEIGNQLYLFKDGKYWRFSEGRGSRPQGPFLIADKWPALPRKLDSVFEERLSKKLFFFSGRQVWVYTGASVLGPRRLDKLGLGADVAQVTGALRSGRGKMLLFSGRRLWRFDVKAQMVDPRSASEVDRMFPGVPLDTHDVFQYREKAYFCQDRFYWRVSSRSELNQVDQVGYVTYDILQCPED
Settings: not given
Take `COc1cc(N)nc2[nH]c(-c3ccc(F)cc3)c(-c3ccncc3)c12`: the IC50 result is “Not Active”.
Still for that read-out and setting: under `COc1ccc(/C=C/C(=O)Nc2ccccc2C(=O)O)cc1OC` stands “Not Active”.
Turning to `CC(=O)Nc1nnc(S(N)(=O)=O)s1` [ACETAZOLAMIDE], the IC50 entry is “Not Active”.
On the same count and under the same terms, under `CC(C)OC(=O)C(C)(C)Oc1ccc(C(=O)c2ccc(Cl)cc2)cc1` [FENOFIBRATE] stands “Not Active”; under `OCCN1CCN(CCCN2c3ccccc3Sc3ccc(C(F)(F)F)cc32)CC1` [FLUPHENAZINE], “Not Active”; under `Nc1nc2c(c(=O)[nH]1)N(C=O)C(CNc1ccc(C(=O)N[C@@H](CCC(=O)O)C(=O)O)cc1)CN2` (some centres not stated) [LEUCOVORIN], “Not Active”.
Still for that read-out and setting: under `C[C@@H](O)[C@H]1C(=O)N2C(C(=O)O)=C(S[C@@H]3CN[C@H](C(=O)N(C)C)C3)[C@H](C)[C@H]12` [MEROPENEM] stands “Not Active”.
The same measure, in the same setting: next, `O=P(O)(O)C(O)(Cc1cccnc1)P(=O)(O)O` [RISEDRONIC ACID]: “Not Active”.

In another assay the target is Adenosine receptor A2a (Homo sapiens, UniProt P29274). The assay can be described thus: DRUGMATRIX: Adenosine A2A radioligand binding (ligand: […]). It counts as cell membranes, HEK293, Membrane. The settings on record: Not Active = under 50% inhibition at 10 µM; read-out: IC50.
Chain of Adenosine receptor A2a (P29274 whole entry): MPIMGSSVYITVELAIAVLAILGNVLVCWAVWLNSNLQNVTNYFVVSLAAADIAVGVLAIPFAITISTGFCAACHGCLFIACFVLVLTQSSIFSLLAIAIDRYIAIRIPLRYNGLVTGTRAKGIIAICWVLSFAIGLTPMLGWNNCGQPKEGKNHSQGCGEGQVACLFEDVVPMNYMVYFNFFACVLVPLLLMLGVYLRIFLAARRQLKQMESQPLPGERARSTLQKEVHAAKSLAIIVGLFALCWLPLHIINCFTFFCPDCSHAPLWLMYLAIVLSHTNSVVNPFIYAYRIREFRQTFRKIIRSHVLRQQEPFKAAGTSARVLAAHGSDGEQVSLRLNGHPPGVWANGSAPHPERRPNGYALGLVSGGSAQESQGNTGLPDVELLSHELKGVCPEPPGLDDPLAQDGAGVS
With `COc1cc(N)nc2[nH]c(-c3ccc(F)cc3)c(-c3ccncc3)c12`, the IC50 was 1030 nM.

The same assay, now with this note: Not Active = under 50% inhibition at 10 µM; read-out: Ki.
For `COc1cc(N)nc2[nH]c(-c3ccc(F)cc3)c(-c3ccncc3)c12`, the Ki was 580 nM.

Still in this assay, the particulars now being: hek293; Not Active = under 50% inhibition at 10 µM.
With `COc1ccc(/C=C/C(=O)Nc2ccccc2C(=O)O)cc1OC`, the 50% inhibitory concentration (IC50) entry is “Not Active”.
`CC(=O)Nc1nnc(S(N)(=O)=O)s1` [ACETAZOLAMIDE]: the IC50 result was “Not Active”.
Turning to `CC(C)OC(=O)C(C)(C)Oc1ccc(C(=O)c2ccc(Cl)cc2)cc1` [FENOFIBRATE], the IC50 result is “Not Active”.
The same measure, in the same setting: under `OCCN1CCN(CCCN2c3ccccc3Sc3ccc(C(F)(F)F)cc32)CC1` [FLUPHENAZINE] stands “Not Active”; under `Nc1nc2c(c(=O)[nH]1)N(C=O)C(CNc1ccc(C(=O)N[C@@H](CCC(=O)O)C(=O)O)cc1)CN2` (some centres not stated) [LEUCOVORIN], “Not Active”.
The same measure, in the same setting: under `C[C@@H](O)[C@H]1C(=O)N2C(C(=O)O)=C(S[C@@H]3CN[C@H](C(=O)N(C)C)C3)[C@H](C)[C@H]12` [MEROPENEM] stands “Not Active”; under `O=P(O)(O)C(O)(Cc1cccnc1)P(=O)(O)O` [RISEDRONIC ACID], “Not Active”.

For a further assay, the target named is T1, Estrogen receptor (Homo sapiens, UniProt P03372). Also: in other assays of this panel Not Active means under 50% inhibition at 10 µM.
T1 sequence (P03372 whole entry): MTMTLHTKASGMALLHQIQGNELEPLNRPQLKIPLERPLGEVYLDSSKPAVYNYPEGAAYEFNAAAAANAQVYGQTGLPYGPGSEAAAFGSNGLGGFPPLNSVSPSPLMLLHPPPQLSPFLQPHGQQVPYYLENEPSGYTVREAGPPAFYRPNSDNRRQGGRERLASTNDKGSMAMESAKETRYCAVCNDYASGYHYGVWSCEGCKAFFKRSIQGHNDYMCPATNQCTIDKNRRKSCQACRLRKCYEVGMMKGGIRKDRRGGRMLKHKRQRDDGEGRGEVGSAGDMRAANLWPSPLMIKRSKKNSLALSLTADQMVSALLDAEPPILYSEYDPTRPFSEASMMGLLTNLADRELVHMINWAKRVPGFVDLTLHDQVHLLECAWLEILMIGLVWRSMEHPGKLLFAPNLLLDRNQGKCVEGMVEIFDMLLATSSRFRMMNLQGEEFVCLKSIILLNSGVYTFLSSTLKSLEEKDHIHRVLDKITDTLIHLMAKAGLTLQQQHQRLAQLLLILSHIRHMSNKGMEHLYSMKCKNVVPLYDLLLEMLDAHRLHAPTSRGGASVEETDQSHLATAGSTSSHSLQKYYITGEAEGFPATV
Assay: not given
The settings on record: sf9.
For the molecule `COc1cc(N)nc2[nH]c(-c3ccc(F)cc3)c(-c3ccncc3)c12`, the IC50 result is given as “Not Active”.
The same measure, in the same setting: under `COc1ccc(/C=C/C(=O)Nc2ccccc2C(=O)O)cc1OC` stands “Not Active”; under `CC(=O)Nc1nnc(S(N)(=O)=O)s1` [ACETAZOLAMIDE], “Not Active”.
Still for that read-out and setting: next, `CC(C)OC(=O)C(C)(C)Oc1ccc(C(=O)c2ccc(Cl)cc2)cc1` [FENOFIBRATE]: “Not Active”.
Regarding `OCCN1CCN(CCCN2c3ccccc3Sc3ccc(C(F)(F)F)cc32)CC1` [FLUPHENAZINE], the IC50 result was “Not Active”.
As for `O=P(O)(O)C(O)(Cc1cccnc1)P(=O)(O)O` [RISEDRONIC ACID], the IC50 entry is “Not Active”.

Test system in another assay: not listed separately
The assay is described as follows: DRUGMATRIX: beta-Lactamase enzyme inhibition (substrate: Nitrocefin). More on the design: species or system Bacillus cereus. As to conditions: Not Active = under 50% inhibition at 10 µM.
Take `COc1cc(N)nc2[nH]c(-c3ccc(F)cc3)c(-c3ccncc3)c12`: the IC50 result is given as “Not Active” and the inhibitory constant (Ki) entry is reported as “Not Active”.
As to `COc1ccc(/C=C/C(=O)Nc2ccccc2C(=O)O)cc1OC`, the IC50 result is on record as “Not Active” and the Ki result is recorded as “Not Active”.
`Nc1nc2c(c(=O)[nH]1)N(C=O)C(CNc1ccc(C(=O)N[C@@H](CCC(=O)O)C(=O)O)cc1)CN2` (some centres not stated) [LEUCOVORIN]: the IC50 entry is on record as “Not Active” and the Ki entry is on record as “Not Active”.
Regarding `C[C@@H](O)[C@H]1C(=O)N2C(C(=O)O)=C(S[C@@H]3CN[C@H](C(=O)N(C)C)C3)[C@H](C)[C@H]12` [MEROPENEM], the IC50 result is “Not Active” and the Ki result is given as “Not Active”.
On to `O=P(O)(O)C(O)(Cc1cccnc1)P(=O)(O)O` [RISEDRONIC ACID], for which the IC50 result is “Not Active” and the Ki result is listed as “Not Active”.

Test system in another assay: not listed separately
The assay is described as follows: DRUGMATRIX: Glutamate, AMPA radioligand binding (ligand: [3H] AMPA). It counts as cell membranes, Rattus norvegicus, Wistar, Cerebral cortex, Membrane. The settings on record: Not Active = under 50% inhibition at 10 µM.
As for `COc1cc(N)nc2[nH]c(-c3ccc(F)cc3)c(-c3ccncc3)c12`, the IC50 entry was “Not Active” and the Ki result is recorded as “Not Active”.
On to `COc1ccc(/C=C/C(=O)Nc2ccccc2C(=O)O)cc1OC`, for which the IC50 entry is given as “Not Active” and the Ki entry was “Not Active”.
As for `Nc1nc2c(c(=O)[nH]1)N(C=O)C(CNc1ccc(C(=O)N[C@@H](CCC(=O)O)C(=O)O)cc1)CN2` (some centres not stated) [LEUCOVORIN], the IC50 result was “Not Active” and the Ki entry is given as “Not Active”.
Turning to `C[C@@H](O)[C@H]1C(=O)N2C(C(=O)O)=C(S[C@@H]3CN[C@H](C(=O)N(C)C)C3)[C@H](C)[C@H]12` [MEROPENEM], the IC50 result is “Not Active” and the inhibition constant (Ki) entry is “Not Active”.
Consider `O=P(O)(O)C(O)(Cc1cccnc1)P(=O)(O)O` [RISEDRONIC ACID], for which the IC50 result is listed as “Not Active” and the Ki entry is “Not Active”.

The target of another assay is Vasopressin V1a receptor (Homo sapiens, UniProt P37288). Also: in other assays of this panel Not Active means under 50% inhibition at 10 µM.
Chain of Vasopressin V1a receptor (P37288 whole entry): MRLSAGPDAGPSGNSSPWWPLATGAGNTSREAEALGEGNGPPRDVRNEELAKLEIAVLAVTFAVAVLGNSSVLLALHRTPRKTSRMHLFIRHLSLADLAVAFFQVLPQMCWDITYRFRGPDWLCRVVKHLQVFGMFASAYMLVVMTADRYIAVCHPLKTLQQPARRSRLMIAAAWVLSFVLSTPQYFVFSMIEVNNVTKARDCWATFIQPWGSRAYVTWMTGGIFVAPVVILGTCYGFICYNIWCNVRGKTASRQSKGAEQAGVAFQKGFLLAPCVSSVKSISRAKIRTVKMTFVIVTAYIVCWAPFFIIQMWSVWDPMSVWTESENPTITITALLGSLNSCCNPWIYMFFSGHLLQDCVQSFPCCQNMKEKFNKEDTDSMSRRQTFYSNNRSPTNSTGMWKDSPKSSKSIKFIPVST
Assay: not given
The assay is classed as cell membranes, Membrane. The settings on record: hek293.
As to `COc1cc(N)nc2[nH]c(-c3ccc(F)cc3)c(-c3ccncc3)c12`, the IC50 entry was “Not Active”.
Turning to `COc1ccc(/C=C/C(=O)Nc2ccccc2C(=O)O)cc1OC`, the IC50 result is on record as “Not Active”.
Still for that read-out and setting: next, `CC(=O)Nc1nnc(S(N)(=O)=O)s1` [ACETAZOLAMIDE]: “Not Active”.
Take `CC(C)OC(=O)C(C)(C)Oc1ccc(C(=O)c2ccc(Cl)cc2)cc1` [FENOFIBRATE]: the 50% inhibitory concentration (IC50) entry is on record as “Not Active”.
The same measure, in the same setting: under `OCCN1CCN(CCCN2c3ccccc3Sc3ccc(C(F)(F)F)cc32)CC1` [FLUPHENAZINE] stands “Not Active”; under `Nc1nc2c(c(=O)[nH]1)N(C=O)C(CNc1ccc(C(=O)N[C@@H](CCC(=O)O)C(=O)O)cc1)CN2` (some centres not stated) [LEUCOVORIN], “Not Active”; under `C[C@@H](O)[C@H]1C(=O)N2C(C(=O)O)=C(S[C@@H]3CN[C@H](C(=O)N(C)C)C3)[C@H](C)[C@H]12` [MEROPENEM], “Not Active”.
On the same count and under the same terms, next, `O=P(O)(O)C(O)(Cc1cccnc1)P(=O)(O)O` [RISEDRONIC ACID]: “Not Active”.

The target in another assay is 5-hydroxytryptamine receptor 4 (Cavia porcellus, UniProt O70528). Also: in other assays of this panel Not Active means under 50% inhibition at 10 µM.
Chain of 5-hydroxytryptamine receptor 4 (O70528 whole entry): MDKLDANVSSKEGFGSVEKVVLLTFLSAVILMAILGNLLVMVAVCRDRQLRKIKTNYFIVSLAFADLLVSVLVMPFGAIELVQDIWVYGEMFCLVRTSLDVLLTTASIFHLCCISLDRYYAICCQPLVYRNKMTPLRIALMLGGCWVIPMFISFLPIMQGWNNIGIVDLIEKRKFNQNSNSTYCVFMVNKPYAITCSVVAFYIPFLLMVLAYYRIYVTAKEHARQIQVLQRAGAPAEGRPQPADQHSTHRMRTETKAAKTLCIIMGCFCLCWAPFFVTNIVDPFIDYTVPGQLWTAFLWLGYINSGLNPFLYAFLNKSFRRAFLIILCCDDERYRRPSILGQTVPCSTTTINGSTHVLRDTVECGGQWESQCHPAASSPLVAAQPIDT
Assay: not given
Settings: not given
It counts as cell membranes, Dunkin-Hartley, Striatum, Membrane.
`COc1cc(N)nc2[nH]c(-c3ccc(F)cc3)c(-c3ccncc3)c12`: the 50% inhibitory concentration (IC50) entry is on record as “Not Active”.
Still for that read-out and setting: next, `COc1ccc(/C=C/C(=O)Nc2ccccc2C(=O)O)cc1OC`: “Not Active”; `CC(=O)Nc1nnc(S(N)(=O)=O)s1` [ACETAZOLAMIDE]: “Not Active”.
On the same count and under the same terms, next, `CC(C)OC(=O)C(C)(C)Oc1ccc(C(=O)c2ccc(Cl)cc2)cc1` [FENOFIBRATE]: “Not Active”.
As for `OCCN1CCN(CCCN2c3ccccc3Sc3ccc(C(F)(F)F)cc32)CC1` [FLUPHENAZINE], the IC50 entry was “Not Active”.
`Nc1nc2c(c(=O)[nH]1)N(C=O)C(CNc1ccc(C(=O)N[C@@H](CCC(=O)O)C(=O)O)cc1)CN2` (some centres not stated) [LEUCOVORIN]: the IC50 entry is listed as “Not Active”.
On the same count and under the same terms, under `C[C@@H](O)[C@H]1C(=O)N2C(C(=O)O)=C(S[C@@H]3CN[C@H](C(=O)N(C)C)C3)[C@H](C)[C@H]12` [MEROPENEM] stands “Not Active”; under `O=P(O)(O)C(O)(Cc1cccnc1)P(=O)(O)O` [RISEDRONIC ACID], “Not Active”.

In the next assay the target is T2, Glucocorticoid receptor (Homo sapiens, UniProt P04150). Also: in other assays of this panel Not Active means under 50% inhibition at 10 µM.
T2 sequence (P04150 whole entry): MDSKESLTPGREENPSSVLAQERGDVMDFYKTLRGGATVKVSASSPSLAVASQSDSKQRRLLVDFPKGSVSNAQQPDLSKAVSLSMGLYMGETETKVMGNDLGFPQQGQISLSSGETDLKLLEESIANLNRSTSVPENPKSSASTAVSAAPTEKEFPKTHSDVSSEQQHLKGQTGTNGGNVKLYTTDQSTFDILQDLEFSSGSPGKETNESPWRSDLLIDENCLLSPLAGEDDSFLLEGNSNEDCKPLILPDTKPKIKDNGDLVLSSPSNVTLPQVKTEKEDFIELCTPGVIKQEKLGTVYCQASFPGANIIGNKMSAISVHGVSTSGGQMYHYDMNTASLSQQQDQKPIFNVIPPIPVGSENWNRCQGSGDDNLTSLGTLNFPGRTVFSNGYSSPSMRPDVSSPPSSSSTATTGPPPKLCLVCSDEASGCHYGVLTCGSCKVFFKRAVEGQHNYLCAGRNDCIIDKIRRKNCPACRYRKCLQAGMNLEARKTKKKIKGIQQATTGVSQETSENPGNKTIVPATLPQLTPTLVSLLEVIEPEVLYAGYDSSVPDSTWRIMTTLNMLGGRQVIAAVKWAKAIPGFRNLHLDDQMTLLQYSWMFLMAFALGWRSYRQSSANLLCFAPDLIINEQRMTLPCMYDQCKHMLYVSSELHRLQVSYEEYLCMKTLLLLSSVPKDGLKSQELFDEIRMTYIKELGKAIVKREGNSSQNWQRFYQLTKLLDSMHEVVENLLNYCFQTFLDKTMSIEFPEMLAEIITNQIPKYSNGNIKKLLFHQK
Assay: not given
The settings on record: hela s3.
Take `COc1cc(N)nc2[nH]c(-c3ccc(F)cc3)c(-c3ccncc3)c12`: the IC50 result is listed as “Not Active”.
As for `COc1ccc(/C=C/C(=O)Nc2ccccc2C(=O)O)cc1OC`, the IC50 result is listed as “Not Active”.
Same read-out and setting: next, `CC(=O)Nc1nnc(S(N)(=O)=O)s1` [ACETAZOLAMIDE]: “Not Active”; `CC(C)OC(=O)C(C)(C)Oc1ccc(C(=O)c2ccc(Cl)cc2)cc1` [FENOFIBRATE]: “Not Active”; `OCCN1CCN(CCCN2c3ccccc3Sc3ccc(C(F)(F)F)cc32)CC1` [FLUPHENAZINE]: “Not Active”.
Still for that read-out and setting: under `Nc1nc2c(c(=O)[nH]1)N(C=O)C(CNc1ccc(C(=O)N[C@@H](CCC(=O)O)C(=O)O)cc1)CN2` (some centres not stated) [LEUCOVORIN] stands “Not Active”; under `C[C@@H](O)[C@H]1C(=O)N2C(C(=O)O)=C(S[C@@H]3CN[C@H](C(=O)N(C)C)C3)[C@H](C)[C@H]12` [MEROPENEM], “Not Active”.
Still for that read-out and setting: next, `O=P(O)(O)C(O)(Cc1cccnc1)P(=O)(O)O` [RISEDRONIC ACID]: “Not Active”.

For orientation: IC50 means the point on the concentration scale where inhibition reaches its midpoint. As a reminder, the Ki is the dissociation constant of the complex between target and ligand, obtained from inhibition or displacement.
